Assay results as given in patent US20240109924A1, “IP4-4,6 SUBSTITUTED DERIVATIVE COMPOUNDS” (SANIFIT THERAPEUTICS, S.A., priority 2021, published 2024).
Where a name gives a salt, the structure may show the parent alone.

Assays:
tissue calcification = assay: In vivo tissue calcification (calcium content by ICP-OES) in vitamin D3-induced limb ischemia rat model; settings: SD rats, vitamin D3 150,000 IU/kg s.c. D1-D3, 30 mg/kg s.c. daily D1-D5, sacrifice D5
Experimental: (§1) The effects of compounds 1, 6, 9, 14, 18, 31, and 39 over blood perfusion and tissue calcification after the inception of limb ischemia were tested using a rat model for a duration of 5 days. Limb ischemia was induced to all groups from D1 to D3 excepting the sham group, to which no ischemia was induced. The animals were administered placebo and active agent formulations from D1 to D5. Observations were taken at several points during the treatment from D0 to D5. All animals were weighed every day before treatment. Seventy-two male Sprague Dawley (SD) rats (Envigo Corp., Huntingdon, GB) weighing approximately 150-200 g were used. The rats were fed with a […]® Rod14-H diet ([…] GmbH, Soest, DE). The rats were divided in 9 groups, 8 animals per group, as follows: • Group 1-Control (Sham) • Group 2-Physiological saline solution • Group 3-Compound 1 • Group 4-Compound 6 • Group 5-Compound 9 • Group 6-Compound 14 • Group 7-Compound 18 • Group 8-Compound 31 • Group 9-Compound 39 Limb ischemia was induced in the rats of groups 2-9 by subcutaneous administration of 150,000 IU/kg vitamin D3 (cholecalciferol, Duphafral D3 1000; Zoetis Inc., Parsippany, NJ, US) in physiological saline solution (2 mL/kg) every day during D1 to D3. The rats of group 1 were not administered vitamin D3. The rats in groups 1 and 2 were administered 2 mL/kg of physiological saline solution daily from D1 to D5 via subcutaneous route. The animals in groups 3-9 were administered subcutaneously 30 mg/kg of compounds 1, 6, 9, 14, 18, 31, and 39, respectively, in physiological saline solution (2 mL/kg), every day from D1 to D5. All rats of groups 1-9 were sacrificed on D5 30 minutes after dosing for determining their Ca baseline values. The animals were anesthetized by isoflurane inhalation. The whole aorta, carotids, femoral arteries, heart, and right kidney of the subjects were collected for calcium content measurement. The tissues were lyophilized for 48-72 h and weighed. The lyophilized tissues were then digested using a 1:1 HNO3:HClO4 mixture in a dry bath incubator for 2-4 h at 180° C. The digested tissues were subsequently diluted using ultra-pure MilliQ® water (MilliporeSigma (Merck KGaA), Burlington, MA, US) to a final volume of 5 mL (i.e., for femoral arteries and carotids) of 10 mL (i.e., for heart, kidneys, and aorta). Calcium content was quantified via inductively coupled plasma optical emission spectrometry (ICP-OES) using an Optima 7300 DV ICP-OES System spectrometer (PerkinElmer, Inc., Waltham, MA, US) according to the manufacturer's instructions. Average blood perfusion recovery compared to vehicle and sham were also calculated. Recovery for sham was 100%. Blood perfusion recovery calculated was using the following equation: 100-((BP sham-BP new drug)/(BP sham-BP vehicle)*100).

[1] = In vitro inhibition of calcium phosphate crystallization in human plasma (spectrophotometric assay); assay type: biochemical; settings: 0-100 μM, 1.5 mM phosphate, 12.5 mM calcium, pH 7.4, absorbance 550 nm, slope 6-24 min, read-out: Relative Potency
Experimental: The in vitro efficacy of the IP4-4,6 substituted derivatives (e.g., Compounds 1 to 53) of the invention on the inhibition of calcium phosphate crystallization in human plasma samples was evaluated according to a spectrophotometric assay previously described in the art (Ferrer M, et al., Sci Rep 2017; 7:6858, doi:10.1038/s41598-017-07203-x).
A 96-well plate was employed. Plasma was spiked (1 volume of the IP4-4,6 substituted derivatives of the invention per 19 volumes of plasma) with increasing concentrations of the derivatives in the range of 0-100 μM. Plasma was then centrifuged at 10,000 g at rt and subsequently mixed with a mixture of 5 mM hydrogen phosphate and 41.67 mM calcium to attain final concentrations of 1.5 mM phosphate and 12.5 mM calcium, respectively. All reagent solutions were filtered, and pH adjusted to 7.4.
Crystallization of calcium phosphate was monitored spectrophotometrically for 30 min at rt by measuring the increments in absorbance at 550 nm using the Biotek Powerwave XS Microplate spectrophotometer (BioTek Instruments, Inc., Winooski, VT, US). The plate was incubated at rt in an orbital shaker and absorbance measured every 3 min.
Plasma crystallization was assessed based on slope measurement in the linear range between 6 and 24 min from plots of increase in absorbance versus logarithm of time. The efficacy of different myo-inositol phosphates derivatives in preventing in vitro formation of calcium phosphate crystals was assessed in human plasma samples using the slopes obtained between 6- and 24-min. Inhibition of crystallization was measured by comparing the slopes of the control sample (blank plasma) with those of samples containing the inhibitor as shown below: […]

blood perfusion = assay: In vivo blood perfusion (laser doppler perfusion imaging) in vitamin D3-induced limb ischemia rat model; settings: average blood perfusion recovery vs vehicle and sham (sham 100%), SD rats, 30 mg/kg s.c. daily D1-D5
Experimental: as §1, with “to D5. Limb functional and ischemia status were evaluated by using a laser doppler perfusion imaging apparatus PeriCam PSI Normal Resolution (Perimed AB, Järfälla, SE) in all groups at D0 and D5. The perfusion difference and perfusion ratio were calculated by comparing the baseline and either D0 or D5 readings for each group. In addition, the blood perfusion ratio of each treatment group (i.e., groups 2 to 9) to sham group was also calculated. All rats” for “to D5. All rats”

SMILES	EC50 [1] [µM]	also measured
CCCCCO[C@@H]1[C@@H](OP(=O)([O-])[O-])[C@H](OCCCCC)[C@@H](OP(=O)([O-])[O-])[C@@H](OP(=O)([O-])[O-])[C@H]1OP(=O)([O-])[O-].[Na+].[Na+].[Na+].[Na+].[Na+].[Na+].[Na+].[Na+] [Compound 1, 4,6-O-dipentyl-myo-inositol-1,2,3,5-tetrakis(phosphate) octasodium salt]	≤ 5	Inhibition of calcification (%) Aorta (tissue calcification; aorta): Over (Average inhibition percentage over or under 25% inhibition of calcification.); Inhibition of calcification (%) Carotid (tissue calcification; carotid): Under (Average inhibition percentage over or under 25% inhibition of calcification.); Inhibition of calcification (%) Femoral (tissue calcification; femoral arteries): Over (Average inhibition percentage over or under 25% inhibition of calcification.); Inhibition of calcification (%) Heart (tissue calcification; heart): Over (Average inhibition percentage over or under 25% inhibition of calcification.); Inhibition of calcification (%) Kidney (tissue calcification; right kidney): Over (Average inhibition percentage over or under 25% inhibition of calcification.); BP recovery (%) (blood perfusion): Under (Average blood perfusion recovery over or under 25%.)
COc1ccc(CCCOC2C(OP(=O)(O)O)C(OCCCc3ccc(OC)cc3)C(OP(=O)(O)O)C(OP(=O)(O)O)C2OP(=O)(O)O)cc1 (stereo not shown) [Compound 43, 4,6-O-bis(3-(4-methoxyphenyl)propyl)-myo-inositol-1,2,3,5-tetrakis(phosphate) octasodium salt]	5 to 10	
NC(=O)CCCOC1C(OP(=O)(O)O)C(OCCCC(N)=O)C(OP(=O)(O)O)C(OP(=O)(O)O)C1OP(=O)(O)O (stereo not shown) [Compound 26, 4,6-O-bis(4-amino-4-oxobutyl)-myo-inositol-1,2,3,5-tetrakis(phosphate) octasodium salt]	≤ 5	
O=C(NCCCOC1C(OP(=O)(O)O)C(OCCCNC(=O)Nc2ccccc2)C(OP(=O)(O)O)C(OP(=O)(O)O)C1OP(=O)(O)O)Nc1ccccc1 (stereo not shown) [Compound 46, 4,6-O-bis(3-(3-phenylureido)propyl)-myo-inositol-1,2,3,5-tetrakis(phosphate) octasodium salt]	5 to 10	
CCCCCOC1C(OP(O)(O)=S)C(OCCCCC)C(OP(O)(O)=S)C(OP(O)(O)=S)C1OP(O)(O)=S (stereo not shown) [Compound 50, 4,6-O-dipentyl-myo-inositol-1,2,3,5-tetrakis(thiophosphate) octasodium salt]	> 10	
COCc1cn(CCCOC2C(OP(=O)(O)O)C(OCCCn3cc(COC)nn3)C(OP(=O)(O)O)C(OP(=O)(O)O)C2OP(=O)(O)O)nn1 (stereo not shown) [Compound 36, 4,6-O-bis(3-(4-(methoxymethyl)-1H-1,2,3-triazol-1-yl)propyl)-myo-inositol-1,2,3,5-tetrakis(phosphate) octasodium salt]	5 to 10	
O=C(NCCCCCOC1C(OP(=O)(O)O)C(OCCCCCNC(=O)c2ccccc2)C(OP(=O)(O)O)C(OP(=O)(O)O)C1OP(=O)(O)O)c1ccccc1 (stereo not shown) [Compound 48, 4,6-O-bis(5-benzamidopentyl)-myo-inositol-1,2,3,5-tetrakis(phosphate) octasodium salt]	> 10	
COCCCCCCCOC1C(OP(=O)(O)O)C(OCCCCCCCOC)C(OP(=O)(O)O)C(OP(=O)(O)O)C1OP(=O)(O)O (stereo not shown) [Compound 11, 4,6-O-bis(7-methoxyheptyl)-myo-inositol-1,2,3,5-tetrakis(phosphate) octasodium salt]	> 10	
COCc1cn(CCCCOC2C(OP(=O)(O)O)C(OCCCCn3cc(COC)nn3)C(OP(=O)(O)O)C(OP(=O)(O)O)C2OP(=O)(O)O)nn1 (stereo not shown) [Compound 37, 4,6-O-bis(4-(4-(methoxymethyl)-1H-1,2,3-triazol-1-yl)butyl)-myo-inositol-1,2,3,5-tetrakis(phosphate) octasodium salt]	5 to 10	
COCCCCCCn1cc(COC2C(OP(=O)(O)O)C(OCc3cn(CCCCCCOC)nn3)C(OP(=O)(O)O)C(OP(=O)(O)O)C2OP(=O)(O)O)nn1 (stereo not shown) [Compound 33, 4,6-O-bis((1-(6-methoxyhexyl)-1H-1,2,3-triazol-4-yl)methyl)-myo-inositol-1,2,3,5-tetrakis(phosphate) octasodium salt]	5 to 10	
